Measurements from patent publication US20040087514A1, “Nutritional compositions” (priority 2002, published 2004).
Marks after values point to notes of the source that are not given here.

Columns and labels:
Format in all cases: in vivo, human
[1] = tested on: C-peptide (indicator of insulin secretion); test: Clinical study, C-peptide levels after ingestion of load (Example 1); conditions: mean
Protocol: (§1) A randomized, placebo-controlled trial was performed in 20 subjects (12 women, 8 men) [body mass index (in kg/m^2): 23]. Subjects received 5 times at least one week apart- a load consisting of galactose (50 g) alone or in combination with guar gum (2,5 g), solved in 250 ml water, or 250 ml water without any additives. Prior to each treatment a catheter was placed in an anticubital vein. Eating behavior and dietary restraint status of subjects were investigated using a validated Dutch translation of the Three Factor Eating Questionnaire (TFEQ). The study was approved by the Medical Ethics Committee of the Maastricht University.

[2] = tested on: healthy, normal-weight subjects; test: Clinical study, perception of satiety, Visual Analog Scale (Example 1); conditions: mean from 100 mm Visual Analog Scale
Protocol: as §1

GLP-1 secretion = test: Clinical study, GLP-1 levels after ingestion of load (Example 1); conditions: for GLP-1 (A): mean
Protocol: as §1

[3] = Clinical study, plasma glucose, galactose, free fatty acids, glycerol (Example 1); conditions: data not shown
Protocol: as §1

insulin release = test: Clinical study, insulin levels after ingestion of load (Example 1); conditions: mean
Protocol: as §1

galactose levels [3]: increased galactose levels significantly
Compound: O=C[C@H](O)[C@@H](O)[C@@H](O)[C@H](O)CO [Galactose, galactose]
C-peptide (A) ([1]; 0 minutes): 0.61 nmol/L | C-peptide (A) ([1]; 30 minutes after ingestion): 1.03^# nmol/l | C-peptide (A) ([1]; 60 minutes after ingestion): 0.89^# nmol/l | C-peptide (A) ([1]; 120 minutes after ingestion): 0.88 nmol/L | Satiety (B) ([2]; 0 minutes): 27^ mm | Satiety (B) ([2]; 30 minutes): 34# mm | Satiety (B) ([2]; 60 minutes): 33# mm | Satiety (B) ([2]; 90 minutes): 25# mm | Satiety (B) ([2]; 120 minutes): 31# mm | Satiety (B) ([2]; 240 minutes): 20^ mm | GLP-1 (A) (GLP-1 secretion; 0 minutes, 50 g galactose (+2,5 g guar gum) in 250 ml water): 3.8 pmol/L | GLP-1 release compared to water (GLP-1 secretion; 30 minutes after ingestion of the load, p<0.05): significantly elevated | GLP-1 (A) (GLP-1 secretion; 30 minutes after ingestion): 4.6^# pmol/l | GLP-1 (A) (GLP-1 secretion; 60 minutes after ingestion): 3.5 pmol/L | GLP-1 (A) (GLP-1 secretion; 90 minutes after ingestion): 3.2 pmol/L | GLP-1 (A) (GLP-1 secretion; 120 minutes after ingestion): 3.7 pmol/L | GLP-1 (A) (GLP-1 secretion; 240 minutes after ingestion): 3.7 pmol/L | Insulin (B) (insulin release; 0 minutes): 7.3 mU/l | Insulin (B) (insulin release; 30 minutes after ingestion): 21# mU/l | Insulin (B) (insulin release; 60 minutes after ingestion): 13 mU/l | Insulin (B) (insulin release; 90 minutes after ingestion): 12 mU/l | Insulin (B) (insulin release; 120 minutes after ingestion): 9.9 mU/l | Insulin (B) (insulin release; 240 minutes after ingestion): 4.7 mU/l
